Measured values taken from US20250084056A1, “SUBSTITUTED OXOISOINDOLINYL PIPERIDINE-2,6-DIONE COMPOUNDS” (BRISTOL-MYERS SQUIBB COMPANY, priority 2023, published 2025).

Key:
Format in all cases: cell-based
GSPT1 = GSPT1 (Homo sapiens, UniProt P15170+Q96SW2); test: GSPT1 Cellular Degradation Assay (DF15-GSPT1-ePL); design: expressed in transfected cells; details: DF15-GSPT1-ePL cells, 20 hours
Summary of the method: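 DC50 and Dmax were derived from chemiluminescence, with 75% response set by the reference compound at […]. Readout was ePL enzyme-fragment complementation in a DF15 line expressing chimeric GSPT1. Cells were exposed to compound for 20 h at 37 °C in RPMI 1640 with 10% FBS, cooled 30 min, then lysed with substrate for 60 min.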

Phospho-Rb (Ser807/811) = test: Phospho-Retinoblastoma (pRB) Cellular Assay; details: Homo sapiens, OVCAR-3, NIH OVCAR3 cells, 24 hours; for IC50: concentration giving 50% response; for Emax: maximum response, reference compound at 10 μM = 100%, read-out: pRB Ymax
Summary of the method: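 Phospho-Rb (Ser807/811) kit read-out on EnVision after lysis (≥4 h, room temperature, dark) of OVCAR3 cells exposed to compound dilutions for 24 h. IC50 and maximum response Ymax are relative to a 10 μM reference compound defining 100%.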

Cyclin E1 = Cyclin E1 (Homo sapiens, UniProt P24864+Q96SW2); test: Cyclin E1 Cellular Degradation Assay (MSD); design: endogenous in cells; host or cells: OVCAR3; details: for DC50 / Dmax: Cyclin E1 cellular degradation; for Dmax: maximum degradation; for Ratio of GSPT1 DC50/Cyclin E1 DC50: selectivity for degradation of Cyclin E1 over GSPT1
Chain of Cyclin E1 (P24864 whole entry): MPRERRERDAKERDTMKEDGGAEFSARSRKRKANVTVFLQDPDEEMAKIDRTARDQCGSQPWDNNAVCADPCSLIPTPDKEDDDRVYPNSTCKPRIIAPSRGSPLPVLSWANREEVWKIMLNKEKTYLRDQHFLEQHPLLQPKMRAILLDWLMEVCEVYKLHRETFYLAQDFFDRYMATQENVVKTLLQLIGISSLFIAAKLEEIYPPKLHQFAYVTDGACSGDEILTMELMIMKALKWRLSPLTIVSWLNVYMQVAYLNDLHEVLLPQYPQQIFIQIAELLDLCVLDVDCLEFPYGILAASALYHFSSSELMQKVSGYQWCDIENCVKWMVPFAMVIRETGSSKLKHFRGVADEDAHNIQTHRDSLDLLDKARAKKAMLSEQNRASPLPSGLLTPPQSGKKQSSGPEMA
Chain of Cyclin E1 (Q96SW2 whole entry): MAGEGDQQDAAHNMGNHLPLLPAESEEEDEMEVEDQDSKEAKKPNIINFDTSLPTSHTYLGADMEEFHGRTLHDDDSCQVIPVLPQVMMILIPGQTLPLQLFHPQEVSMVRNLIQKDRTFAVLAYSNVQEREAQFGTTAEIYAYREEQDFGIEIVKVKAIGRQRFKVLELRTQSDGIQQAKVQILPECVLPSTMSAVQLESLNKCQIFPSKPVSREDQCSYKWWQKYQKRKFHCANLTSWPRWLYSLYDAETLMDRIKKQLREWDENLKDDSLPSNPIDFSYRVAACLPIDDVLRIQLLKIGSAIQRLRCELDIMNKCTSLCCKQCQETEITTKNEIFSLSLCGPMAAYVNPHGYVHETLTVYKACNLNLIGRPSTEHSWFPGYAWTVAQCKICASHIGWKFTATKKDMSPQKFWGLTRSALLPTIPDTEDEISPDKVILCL
Chain of Cyclin E1 (Q16531 whole entry partner): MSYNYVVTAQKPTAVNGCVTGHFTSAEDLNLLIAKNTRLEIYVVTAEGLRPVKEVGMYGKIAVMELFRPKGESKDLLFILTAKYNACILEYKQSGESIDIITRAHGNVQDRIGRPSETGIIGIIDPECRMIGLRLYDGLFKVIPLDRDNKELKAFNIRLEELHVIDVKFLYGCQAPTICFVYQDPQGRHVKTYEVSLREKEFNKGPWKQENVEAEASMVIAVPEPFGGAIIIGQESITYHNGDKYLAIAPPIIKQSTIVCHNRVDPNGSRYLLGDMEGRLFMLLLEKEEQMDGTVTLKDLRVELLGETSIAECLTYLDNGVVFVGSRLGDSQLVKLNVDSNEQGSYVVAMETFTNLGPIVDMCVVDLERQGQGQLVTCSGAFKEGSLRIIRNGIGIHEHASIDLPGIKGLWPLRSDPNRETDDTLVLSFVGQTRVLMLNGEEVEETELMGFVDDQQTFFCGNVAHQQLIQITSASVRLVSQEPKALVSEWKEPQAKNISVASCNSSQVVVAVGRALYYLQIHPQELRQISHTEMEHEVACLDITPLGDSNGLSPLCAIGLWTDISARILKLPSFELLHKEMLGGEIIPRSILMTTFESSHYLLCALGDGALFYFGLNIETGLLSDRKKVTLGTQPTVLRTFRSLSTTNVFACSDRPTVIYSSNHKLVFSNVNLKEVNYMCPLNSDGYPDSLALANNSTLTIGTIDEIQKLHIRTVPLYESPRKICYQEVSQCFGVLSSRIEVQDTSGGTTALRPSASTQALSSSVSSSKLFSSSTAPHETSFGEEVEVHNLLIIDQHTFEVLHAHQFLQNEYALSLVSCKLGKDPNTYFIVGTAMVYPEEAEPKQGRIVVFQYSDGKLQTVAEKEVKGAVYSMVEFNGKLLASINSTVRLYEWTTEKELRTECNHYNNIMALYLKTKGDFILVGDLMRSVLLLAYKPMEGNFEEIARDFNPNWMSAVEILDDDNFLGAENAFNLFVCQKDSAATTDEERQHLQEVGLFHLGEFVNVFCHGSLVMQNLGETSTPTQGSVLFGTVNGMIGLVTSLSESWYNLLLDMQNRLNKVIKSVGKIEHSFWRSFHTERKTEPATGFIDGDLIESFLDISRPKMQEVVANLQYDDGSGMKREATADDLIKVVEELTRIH
Summary of the method: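 Cyclin E1 remaining after 24 h compound exposure of OVCAR3 cells was quantified in lysates by electrochemiluminescent MSD sandwich assay. DC50 (50% response concentration) and Dmax (maximum response) were calculated, with 110% response set by a reference compound at […].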

Chain of GSPT1 (P15170 whole entry, the tested form may be a part): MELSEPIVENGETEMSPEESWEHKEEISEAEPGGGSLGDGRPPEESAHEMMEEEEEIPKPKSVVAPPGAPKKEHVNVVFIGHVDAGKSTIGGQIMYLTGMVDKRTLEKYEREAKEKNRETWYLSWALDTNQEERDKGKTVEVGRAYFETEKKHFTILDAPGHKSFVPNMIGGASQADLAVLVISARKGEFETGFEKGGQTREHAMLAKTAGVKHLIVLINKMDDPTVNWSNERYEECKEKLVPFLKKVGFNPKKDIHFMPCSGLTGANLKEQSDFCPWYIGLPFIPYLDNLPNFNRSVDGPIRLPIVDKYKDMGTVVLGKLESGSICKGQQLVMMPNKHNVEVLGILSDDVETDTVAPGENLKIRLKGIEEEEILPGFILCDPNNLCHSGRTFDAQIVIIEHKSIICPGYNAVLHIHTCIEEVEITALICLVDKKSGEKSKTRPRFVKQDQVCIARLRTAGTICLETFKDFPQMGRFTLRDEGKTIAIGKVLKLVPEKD
Chain of GSPT1 (Q96SW2 whole entry, the tested form may be a part): as the sequence (Q96SW2 whole entry) above
Chain of GSPT1 (Q16531 whole entry partner, the tested form may be a part): as the sequence (Q16531 whole entry partner) above

| SMILES | DC50 (GSPT1) | Dmax (GSPT1) | IC50 (Phospho-Rb (Ser807/811)) | DC50 (Cyclin E1) | Dmax (Cyclin E1) | Ratio of GSPT1 DC50/Cyclin E1 DC50 (Cyclin E1) | Emax (Phospho-Rb (Ser807/811)) |
| --- | --- | --- | --- | --- | --- | --- | --- |
| COc1c(COC(=O)Nc2ccc(Oc3ccc(F)cc3C)cc2C)ccc2c1C(=O)N(C1CCC(=O)NC1=O)C2 (centres unmarked) [Example 76, [2-(2,6-dioxopiperidin-3-yl)-4-methoxy-3-oxo-2,3-dihydro-1H-isoindol-5-yl]methyl N-[4-(4-fluoro-2-methylphenoxy)-2-methylphenyl]carbamate] | > 14000 nM | 33% | 104 nM | 267 nM | 111% | >52 | 122% |
| COc1cc(Oc2ccccc2)ccc1NC(=O)OCc1ccc2c(c1OC)C(=O)N(C1CCC(=O)NC1=O)C2 (centres unmarked) [Example 93, [2-(2,6-dioxopiperidin-3-yl)-4-methoxy-3-oxo-2,3-dihydro-1H-isoindol-5-yl]methyl N-(2-methoxy-4-phenoxyphenyl)carbamate] | > 14000 nM | 5% | 159 nM | 338 nM | 103% | >41 | 111% |
| COc1c(COC(=O)Nc2ccc(Oc3ccc(Cl)c(Cl)c3)cc2F)ccc2c1C(=O)N(C1CCC(=O)NC1=O)C2 (centres unmarked) [Example 117, [2-(2,6-dioxopiperidin-3-yl)-4-methoxy-3-oxo-2,3-dihydro-1H-isoindol-5-yl]methyl N-[4-(3,4-dichlorophenoxy)-2-fluorophenyl]carbamate] | > 14000 nM | 28% | 115 nM | 104 nM | 108% | >135 | 108% |
| COc1cc(Oc2ccc(F)cc2F)ccc1NC(=O)OCc1ccc2c(c1OC)C(=O)N(C1CCC(=O)NC1=O)C2 (centres unmarked) [Example 49, [2-(2,6-dioxopiperidin-3-yl)-4-methoxy-3-oxo-2,3-dihydro-1H-isoindol-5-yl]methyl N-[4-(2,4-difluorophenoxy)-2-methoxyphenyl]carbamate] | > 14000 nM | 24% | 171 nM | 77 nM | 106% | >181 | 116% |
| COc1c(COC(=O)Nc2ccc(Oc3ccccc3Cl)cc2F)ccc2c1C(=O)N(C1CCC(=O)NC1=O)C2 (centres unmarked) [Example 107, [2-(2,6-dioxopiperidin-3-yl)-4-methoxy-3-oxo-2,3-dihydro-1H-isoindol-5-yl]methyl N-[4-(2-chlorophenoxy)-2-fluorophenyl]carbamate] | 10000 nM | 63% | 106 nM | 69 nM | 108% | 146 | 124% |
| O=C1CCC(N2Cc3ccc(COC(=O)Nc4ccc(Oc5ccc(F)c(F)c5)cc4)c(OC(F)F)c3C2=O)C(=O)N1 (centres unmarked) [Example 61, [4-(difluoromethoxy)-2-(2,6-dioxopiperidin-3-yl)-3-oxo-2,3-dihydro-1H-isoindol-5-yl]methyl N-[4-(3,4-difluorophenoxy)phenyl]carbamate] | > 14000 nM | 22% | 412 nM | 157 nM | 104% | >89 | 107% |
| COc1c(COC(=O)Nc2ccc(Oc3cc(F)c(F)cc3Cl)cc2F)ccc2c1C(=O)N(C1CCC(=O)NC1=O)C2 (centres unmarked) [Example 109, [2-(2,6-dioxopiperidin-3-yl)-4-methoxy-3-oxo-2,3-dihydro-1H-isoindol-5-yl]methyl N-[4-(2-chloro-4,5-difluorophenoxy)-2-fluorophenyl]carbamate] | > 14000 nM | 42% | 66 nM | 111 nM | 107% | >127 | 114% |
| CCOc1c(COC(=O)Nc2ccc(Oc3ccccc3)cc2)ccc2c1C(=O)N(C1CCC(=O)NC1=O)C2 (centres unmarked) [Example 52, [2-(2,6-dioxopiperidin-3-yl)-4-ethoxy-3-oxo-2,3-dihydro-1H-isoindol-5-yl]methyl N-(4-phenoxyphenyl)carbamate] | > 14000 nM | 13% | 81 nM | 134 nM | 107% | >105 | 111% |
| COc1c(COC(=O)Nc2ccc(Oc3cccc4ccccc34)cc2)ccc2c1C(=O)N(C1CCC(=O)NC1=O)C2 (centres unmarked) [Example 113, [2-(2,6-dioxopiperidin-3-yl)-4-methoxy-3-oxo-2,3-dihydro-1H-isoindol-5-yl]methyl N-[4-(naphthalen-1-yloxy)phenyl]carbamate] | > 14000 nM | 37% | 99 nM | 190 nM | 113% | >74 | 93% |
| COc1c(COC(=O)Nc2ccc(Oc3ccccc3C3CC3)cc2)ccc2c1C(=O)N(C1CCC(=O)NC1=O)C2 (centres unmarked) [Example 87, [2-(2,6-dioxopiperidin-3-yl)-4-methoxy-3-oxo-2,3-dihydro-1H-isoindol-5-yl]methyl N-[4-(2-cyclopropylphenoxy)phenyl]carbamate] | > 14000 nM | 39% | 272 nM | 414 nM | 100% | >34 | 98% |
| COc1c(COC(=O)Nc2ccc(Oc3ccccc3F)cc2)ccc2c1C(=O)N(C1CCC(=O)NC1=O)C2 (centres unmarked) [Example 79, [2-(2,6-dioxopiperidin-3-yl)-4-methoxy-3-oxo-2,3-dihydro-1H-isoindol-5-yl]methyl N-[4-(2-fluorophenoxy)phenyl]carbamate] | > 14000 nM | 31% | 128 nM | 375 nM | 112% | >37 | 120% |

The next lines start with results.

| DC50 (GSPT1) | Dmax (GSPT1) | IC50 (Phospho-Rb (Ser807/811)) | DC50 (Cyclin E1) | Dmax (Cyclin E1) | Ratio of GSPT1 DC50/Cyclin E1 DC50 (Cyclin E1) | SMILES | Emax (Phospho-Rb (Ser807/811)) |
| --- | --- | --- | --- | --- | --- | --- | --- |
| > 14000 nM | 14% | 129 nM | 156 nM | 105% | >89 | O=C1CC[C@H](N2Cc3ccc(COC(=O)Nc4ccc(Oc5ccc(F)c(F)c5)cc4)c(OCCCc4ccccc4)c3C2=O)C(=O)N1 [Example 173, {2-[(3S)-2,6-dioxopiperidin-3-yl]-3-oxo-4-(3-phenylpropoxy)-2,3-dihydro-1H-isoindol-5-yl}methyl N-[4-(3,4-difluorophenoxy)phenyl]carbamate] | 127% |
| > 14000 nM | 0% | 14 nM | 13 nM | 107% | >1,066 | O=C1CCC(N2Cc3ccc(COC(=O)Nc4ccc(Oc5ccccc5)cc4)c(OC4CCOCC4)c3C2=O)C(=O)N1 (centres unmarked) [Example 134, [2-(2,6-dioxopiperidin-3-yl)-4-(oxan-4-yloxy)-3-oxo-2,3-dihydro-1H-isoindol-5-yl]methyl N-(4-phenoxyphenyl)carbamate] | 144% |
| > 14000 nM | 9% | 37 nM | 57 nM | 111% | >247 | O=C1CCC(N2Cc3ccc(COC(=O)Nc4ccc(Oc5ccc(F)cc5F)cc4)c(O[C@@H]4CCCOC4)c3C2=O)C(=O)N1 (stereo partly drawn) [Example 145, [2-(2,6-dioxopiperidin-3-yl)-4-[(3R)-oxan-3-yloxy]-3-oxo-2,3-dihydro-1H-isoindol-5-yl]methyl N-[4-(2,4-difluorophenoxy)phenyl]carbamate] | 145% |
| > 14000 nM | 0% | 160 nM | 170 nM | 107% | >82 | O=C1CCC(N2Cc3ccc(COC(=O)Nc4ccc(Oc5ccccc5)cc4)c(Oc4cccnc4)c3C2=O)C(=O)N1 (centres unmarked) [Example 171, [2-(2,6-dioxopiperidin-3-yl)-3-oxo-4-(pyridin-3-yloxy)-2,3-dihydro-1H-isoindol-5-yl]methyl N-(4-phenoxyphenyl)carbamate] | 130% |
| > 14000 nM | 6% | 8 nM | 13 nM | 111% | >1,042 | O=C1CCC(N2Cc3ccc(COC(=O)Nc4ccc(Oc5ccc(F)c(F)c5)cc4)c(O[C@H]4CC[C@@H](O)CC4)c3C2=O)C(=O)N1 (stereo partly drawn) [Example 167, [2-(2,6-dioxopiperidin-3-yl)-3-oxo-4-{[(1S,4S)-4-hydroxycyclohexyl]oxy}-2,3-dihydro-1H-isoindol-5-yl]methyl N-[4-(3,4-difluorophenoxy)phenyl]carbamate] | 148% |
| > 14000 nM | 6% | 118 nM | 79 nM | 100% | >177 | O=C1CCC(N2Cc3ccc(COC(=O)Nc4ccc(Oc5ccc(F)c(F)c5)cc4)c(Oc4cccnc4)c3C2=O)C(=O)N1 (centres unmarked) [Example 172, [2-(2,6-dioxopiperidin-3-yl)-3-oxo-4-(pyridin-3-yloxy)-2,3-dihydro-1H-isoindol-5-yl]methyl N-[4-(3,4-difluorophenoxy)phenyl]carbamate] | 120% |
